Assay results: patent US20100099088A1, “RELIABLE DETECTION OF VANCOMYCIN-INTERMEDIATE STAPHYLOCOCCUS AUREUS” (priority 2006, published 2010)
Like-named read-outs stand apart in the source and are kept apart here.

Key:
[1] = test system: SAV2095 (SEQ ID NO.:1) expression in S. aureus; assay: SAV2095 homologue mRNA expression by qRT-PCR after growth in subinhibitory vancomycin; type: cell-based, Staphylococcus aureus
Method: Overnight cultures of strains were diluted 1/100 in tryptic soy broth containing either 0 (for all strains), 1 (for selected MRSA), or 3 (for selected VISA) mg/L vancomycin and grown to mid-log phase. Cells from 1 mL culture were harvested and treated with RNAProtect (Qiagen). Cells were subsequently treated with lysostaphin for 30 min at 37° C., and total RNA was isolated from each sample and each condition using the RNeasy Kit (Qiagen). Samples were then treated with Turbo DNA-free (Ambion, Austin, Tex.) to remove any contaminating genomic DNA. RNA quantity and quality was assessed using an Agilent Technologies 2100 bioanalyzer and RNA 6000 Nano LabChip kit (Agilent, Mountain View, Calif.). Complementary DNA (cDNA) was generated from 688 ng of total RNA using a random primer hexamer following the protocol for Superscript II (Invitrogen, Carlsbad, Calif.) in a 20 μL volume.
Equal amounts (34 ng) of cDNA were run in triplicate and amplified in a 15 μl reaction containing 7.5 μL of 2× Universal PCR Master Mix (Applied Biosystems, Foster City, Calif.), 10 nM of Z-tailed forward primer, 100 nM of reverse primer, 100 nM of Amplifluor Uniprimer probe (Chemicon, Temecula, Calif.), and 1 μL of DNA target. Moreover, no-template controls were used as recommended. The mixture was incubated at 50° C. for 2 min, at 95° C. for 4 min, and then cycled at 95° C. for 15 sec and at 55° C. for 40 sec 55 times using the Applied Biosystems Prism 7900 Sequence Detector. Amplification efficiencies were validated and normalized to expression of the 16S rRNA gene as a standard, and quantity of target and standard genes were calculated according to a standard curve. Primers were designed using Primer Express 2.0 (Applied Biosystems) and their sequence data are the following: for SAV2095, forward, 5-Ztail-[…]-3, reverse, 5-[…]-3; and for 16S rRNA, forward, 5-Ztail-[…]-3, reverse, 5-GCTTAAGGGTTGCGCTCGT-3. Amplicons were detected using the Amplifluor™ UniPrimerr™ system where forward primers used contained the 5′ Z sequence ACTGAACCTGACCGTACA. As it is appreciated by a person skilled in the art, it is to be understood herein that other primers may be used for amplifying and detecting SAV2095 without departing from the scope of the invention. A person skilled in the art knows how to design primers for any given amplification assay. For example, in a multiplex assay, primers would need to have similar melting temperatures and low complementarity, etc.

[2] = test system: Staphylococcus aureus strains (MRSA, hVISA/VISA); conditions: cited from earlier work; as to Modified Etest category: key: S = sensitive; I = intermediate; R = resistant
[3] = strain 160013 (NRS283), 2 McF inoculum
[4] = strain BR 5 (NRS56), 2 McF inoculum
[5] = strain HIP07930 (NRS22), 2 McF inoculum
[6] = strain HIP09433 (NRS27), 2 McF inoculum
[7] = strain HIP09662 (NRS28), 2 McF inoculum
[8] = strain HIP12864 (NRS402), 2 McF inoculum
[9] = strain LIM 1 (NRS35), 2 McF inoculum
[10] = strain LIM 3 (NRS37), 2 McF inoculum
[11] = strain LY-1999 0620-01 (NRS63), 2 McF inoculum
[12] = strain LY-1999 0620-02 (NRS64), 2 McF inoculum
[13] = strain Mu3 (NRS2), 2 McF inoculum
[14] = strain Mu50 (NRS1), 2 McF inoculum
[15] = strain SA MER (NRS11), 2 McF inoculum
[16] = strain SA MER-S20 (NRS14), 2 McF inoculum

CN[C@H](CC(C)C)C(=O)N[C@H]1C(=O)N[C@@H](CC(N)=O)C(=O)N[C@H]2C(=O)N[C@H]3C(=O)N[C@H](C(=O)N[C@H](C(=O)O)c4cc(O)cc(O)c4-c4cc3ccc4O)[C@H](O)c3ccc(c(Cl)c3)Oc3cc2cc(c3O[C@@H]2O[C@H](CO)[C@@H](O)[C@H](O)[C@H]2O[C@H]2C[C@](C)(N)[C@H](O)[C@H](C)O2)Oc2ccc(cc2Cl)[C@H]1O [vancomycin]
Effect on SAV2095 expression level ([1]; MRSA strains grown with subinhibitory vancomycin 1 mg/L): does not consistently increase
Effect on SAV2095 expression level ([1]; MRSA strains grown with subinhibitory vancomycin 1 mg/L, listed as Vn): not in MRSA
Effect on SAV2095 expression level ([1]; VISA strains grown with subinhibitory vancomycin 3 mg/L, p<0.05): consistently increased further
Effect on SAV2095 expression level ([1]; VISA strains grown with subinhibitory vancomycin 3 mg/L, p<0.05, listed as Vn): increased expression of SAV2095
Modified Etest MIC [2, 3]: 8 µg/mL
Modified Etest category [2, 3]: I
Modified Etest MIC [2, 4]: 16 µg/mL
Modified Etest category [2, 4]: I
Modified Etest MIC [2, 5]: 8 µg/mL
Modified Etest category [2, 5]: I
Modified Etest MIC [2, 6]: 8 µg/mL
Modified Etest category [2, 6]: I
Modified Etest MIC [2, 7]: 8 µg/mL
Modified Etest category [2, 7]: I
Modified Etest MIC [2, 8]: 48 µg/mL
Modified Etest category [2, 8]: R
Modified Etest MIC [2, 9]: 4 µg/mL
Modified Etest category [2, 9]: S
Modified Etest MIC [2, 10]: 6 µg/mL
Modified Etest category [2, 10]: I
Modified Etest MIC [2, 11]: 16 µg/mL
Modified Etest category [2, 11]: I
Modified Etest MIC [2, 12]: 6 µg/mL
Modified Etest category [2, 12]: I
Modified Etest MIC [2, 13]: 6 µg/mL
Modified Etest category [2, 13]: I
Modified Etest MIC [2, 14]: 12 µg/mL
Modified Etest category [2, 14]: I
Modified Etest MIC ([2]; strain NRS118, 2 McF inoculum): 24 µg/mL
Modified Etest category ([2]; strain NRS118, 2 McF inoculum): I
Modified Etest MIC [2, 15]: 8 µg/mL
Modified Etest category [2, 15]: I
Modified Etest MIC [2, 16]: 24 µg/mL
Modified Etest category [2, 16]: I
